Columns and labels:
[1] = tested on: mouse whole blood metabolome; test: Combined NMR and LC-MS metabolomics of mouse whole blood, metabolic time trajectories (cohort 3); format: in vivo; conditions: for NMR metabolic time trajectory of whole blood after radiation: PLS Q2 against D−5 baseline
Method: (§1) Cohort three comprised whole blood samples from mice exposed to a single dose of 9.6 Gy ^60Co-γ-radiation at a rate of 0.6 Gy/minute in the presence or absence of drug intervention (50 mg/kg or 200 mg/kg amifostine). A total of 300 blood samples were collected from 60 mice divided into five groups (12 mice per group). The five groups correspond to: (1) amifostine dosage of 50 mg/kg without radiation exposure, (2) amifostine dosage of 200 mg/kg without radiation exposure, (3) amifostine dosage of 50 mg/kg with radiation exposure, (4) amifostine dosage of 200 mg/kg with radiation exposure, and (5) a radiation exposure without an amifostine treatment. Blood samples were collected at five time-points: at day −5 (D−5), at time of amifostine dosage, day −1 (D−1), day 1 (D1), day 5 (D5) and day 9 (D9). Amifostine was delivered through a subcutaneous injection.
Mouse (n=236) and NHP (n=70) serum samples, and mouse blood samples (n=300) were simultaneously prepared for LC-MS and NMR analysis as shown in FIG. 1C. 2.0% by volume of NaN3 was added to each serum or blood sample to avoid bacterial growth. The protein component was precipitated by adding 100 μL (2×) of methanol to 50 μL of serum or blood. Deoxygenated methanol was used for the blood preparation to avoid unnecessary oxidation of the red blood cells. Methanol was purged of oxygen by bubbling in nitrogen gas for 30 minutes.
The 1:2 mixtures were then vortexed for 10 seconds. Serum samples were incubated at room temperature for 5 minutes. Blood samples were sonicated in a water bath for 10 minutes at 4° C., followed by incubation at −20° C. for 20 minutes. The samples were then centrifuged at 15,000×g for 20 minutes at 4° C. to pellet the proteins. The supernatant was collected, transferred to an Eppendorf tube, and centrifuged again at 15,000×g for 5 minutes at 4° C. The supernatant was then divided 20% and 80% for LC-MS and NMR samples, respectively. Samples were snap-frozen in liquid nitrogen. Methanol was evaporated by speed vacuum centrifugation (SpeedVac R Plus, Savant) and water was removed by lyophilization using FreeZone™ (Labconco, Kansas City, MO).
Dried serum or blood samples were reconstituted using 50 μL of 50 mM phosphate buffer in 100% D20 at pH 7.2 (uncorrected) with 50 μM TMSP as an NMR chemical shift reference and internal standard. The samples were centrifuged at 15,000×g for 20 minutes at 4° C. to remove any particulates, and the supernatant was transferred to 1.7 mm NMR tube for data acquisition. All NMR experiments were collected at 298K with a Bruker AVANCE III HD 700 MHz spectrometer equipped with a 5 mm quadruple resonance QCI-P cryoprobe (^1H, ^13C, ^15N and ^31P) with z-axis gradients. A SampleJet automated sample changer with Bruker ICON-NMR software was used to collect all data. […]

[2] = tested on: mice exposed to 9.6 Gy 60Co-γ-radiation; test: Thirty-day survival of mice given amifostine before 9.6 Gy 60Co-γ-radiation (cohort 3); format: in vivo, mouse
Method: as §1
Lastly, to evaluate the radioprotective impact of amifostine treatment, cohort three also contained mice that received a subcutaneous injection of either 50 mg/kg or 200 mg/kg of amifostine 30 minutes (+10 minutes) before exposure to radiation. A total of 300 samples were collected from 60 mice divided into five groups (n=12): (1) 50 mg/kg amifostine treatment without radiation exposure (Am50), (2) 200 mg/kg amifostine treatment without radiation exposure (Am200), (3) only 9.6 Gy radiation exposure (RAD), (4) 9.6 Gy radiation exposure with a 50 mg/kg amifostine treatment (RAD+Am50), and (5) 9.6 Gy radiation exposure with a 200 mg/kg amifostine treatment (RAD+Am200). Serum samples were collected from each group at five different time points. Serum collected at five days and one day prior to radiation exposure were used as controls, and serum samples for metabolomics analysis were collected at 1, 5 and 9 days post-irradiation (Table 1).
Furthermore, an incremental decrease in survival began at day 11.

SMILES: NCCCNCCSP(=O)(O)O [amifostine, 2-(3-aminpropyl) aminoethylphosphorothioate]
- NMR metabolic time trajectory of whole blood after radiation ([1]; amifostine 50 mg/kg, 9.6 Gy): could not be discriminated from untreated controls
- NMR metabolic time trajectory of whole blood after radiation ([1]; amifostine 200 mg/kg, 9.6 Gy, p=1.60×10^−7): reversed progression back towards the baseline norm (D−5) by D9
- recovery of dysregulated metabolic pathways ([1]; amifostine 200 mg/kg, between D5 and D9 after radiation exposure): recovery of pathways including lipid metabolism, glycolysis, and TCA activity as well as energy and amino acid metabolism
- LC-MS metabolic time trajectory of whole blood after radiation ([1]; amifostine treatment, 9.6 Gy, p=2.10×10^−2): divergence of trajectories from D5 to D9
- survival at 30 days post-irradiation ([2]; amifostine 50 mg/kg subcutaneous, 30 minutes before 9.6 Gy, untreated irradiated animals 100% died): 40%
- day at which incremental decrease in survival began ([2]; amifostine 50 mg/kg, 9.6 Gy): 11 days
- animal survival 30 days post-irradiation ([2]; amifostine 200 mg/kg subcutaneous, 30 minutes prior to 9.6 Gy, untreated irradiated animals 100% died): 100%

Reference: US20230410977A1, “METHODS AND MATERIALS FOR ASSESSING RADIATION EXPOSURE” (NUtech Ventures, priority 2020, published 2023)
